Assay results reported in patent publication US9428459B2, “Difluoromethyl-nicotinic- tetrahydronaphtyl carboxamides” (BAYER CROPSCIENCE AG, priority 2012, dated 2016).

Experiments:
[1] = log P by HPLC on reversed phase columns (EEC directive 79/831 Annex V.A8); type: physicochemical; settings: method [a]: LC-MS at pH 2.7, 0.1% formic acid in water / acetonitrile, gradient 10% to 95% acetonitrile; for chromatographic logP: reversed phase HPLC columns
Protocol: Measurement of log P values was performed according EEC directive 79/831 Annex V.A8 by HPLC (High Performance Liquid Chromatography) on reversed phase columns with the following methods: ^[a]Measurement of LC-MS was done at pH 2.7 with 0.1% formic acid in water and with acetonitrile (contains 0.1% formic acid) as eluent with a linear gradient from 10% acetonitrile to 95% acetonitrile. Calibration was done with not branched alkan2-ones (with 3 to 16 carbon atoms) with known log P-values (measurement of log P values using retention times with linear interpolation between successive alkanones). lambda-maX-values were determined using UV-spectra from 200 nm to 400 nm and the peak values of the chromatographic signals.

Alternaria brassicae = test: In vivo preventive test on Alternaria brassicae (leaf spot on radish); settings: dose 500 ppm, radish plants, preventive spray, grading 6 days after contamination
Protocol: Radish plants (“Pernod Clair” variety), sown in starter cups on a 50/50 peat soil-pozzolana substrate and grown at 17° C., are treated at the cotyledon stage by spraying with the active ingredient prepared as described above. Plants, used as controls, are treated with the mixture of acetone/tween/DMSO/water not containing the active material. After 24 hours, the plants are contaminated by spraying the cotyledons with an aqueous suspension of Alternaria brassicae spores (50 000 spores per ml). The spores are collected from a 15-day-old culture. The contaminated radish plants are incubated at 20° C. and at 100% relative humidity. Grading (% of efficacy) is carried out 6 days after the contamination, in comparison with the control plants.

Uromyces appendiculatus = test: In vivo preventive test on Uromyces appendiculatus (bean rust); settings: dose 500 ppm, bean plants, preventive spray, grading 11 days after contamination
Protocol: The active ingredients tested are prepared by homogenization in a mixture of acetone/tween/DMSO, and then diluted with water to obtain the desired active material concentration.
Bean plants (“Saxa” variety), sown in starter cups on a 50/50 peat soil-pozzolana substrate and grown at 24° C., are treated at the 2-leaf stage (9 cm height) by spraying with the active ingredient prepared as described above. Plants, used as controls, are treated with the mixture of acetone/tween/DMSO/water not containing the active material.
After 24 hours, the plants are contaminated by spraying the leaves with an aqueous suspension of Uromyces appendiculatus spores (150 000 spores per ml). The spores are collected from infected plants and are suspended in water containing 2.5 ml/l of Tween 80 at 10%. The contaminated bean plants are incubated for 24 hours at 20° C. and at 100% relative humidity, and then for 10 days at 20° C. and at 70-80% relative humidity.
Grading (% of efficacy) is carried out 11 days after the contamination, in comparison with the control plants.

Puccinia recondita = test: In vivo preventive test on Puccinia recondita (brown rust on wheat); settings: wheat plants, preventive spray, grading 12 days after contamination
Protocol: Wheat plants (“Scipion” variety), sown in starter cups on a 50/50 peat soil-pozzolana substrate and grown at 22° C., are treated at the 1-leaf stage (10 cm height) by spraying with the active ingredient prepared as described above. Plants, used as controls, are treated with the mixture of acetone/tween/DMSO/water not containing the active material. After 24 hours, the plants are contaminated by spraying the leaves with an aqueous suspension of Puccinia recondita spores (100 000 spores per ml). The spores are collected from an infected plant and are suspended in water containing 2.5 ml/l of Tween 80 at 10%. The contaminated wheat plants are incubated for 24 hours at 20° C. and at 100% relative humidity, and then for 10 days at 20° C. and at 70-80% relative humidity. Grading (% of efficacy) is carried out 12 days after the contamination, in comparison with the control plants.

Botrytis cinerea = test: In vivo preventive test on Botrytis cinerea (grey mould); settings: gherkin plants, preventive spray, grading 4 to 5 days after contamination
Protocol: Gherkin plants (“Vert petit de Paris” variety), sown in starter cups on a 50/50 peat soil-pozzolana substrate and grown at 24° C., are treated at the Z11 cotyledon stage by spraying with the active ingredient prepared as described above. Plants, used as controls, are treated with the mixture of acetone/tween/DMSO/water not containing the active material. After 24 hours, the plants are contaminated by spraying the cotyledons with an aqueous suspension of cryopreserved Botrytis cinerea spores (50 000 spores per ml). The spores are suspended in a nutrient solution composed of 10 g/L of PDB, 50 g/L of D-Fructose, 2 g/L of NH4NO3 and 1 g/L of KH2PO4. The contaminated gherkin plants are incubated at 17° C. and at 90% relative humidity. Grading (% of efficacy) is carried out 4 to 5 days after the contamination, in comparison with the control plants.

Pyrenophora teres = test: In vivo preventive test on Pyrenophora teres (net blotch on barley); settings: dose 500 ppm, barley plants, preventive spray, grading 14 days after contamination
Protocol: Barley plants (“Plaisant” variety), sown in starter cups on a 50/50 peat soil-pozzolana substrate and grown at 22° C., are treated at the 1-leaf stage (10 cm height) by spraying with the active ingredient prepared as described above. Plants, used as controls, are treated with the mixture of acetone/tween/DMSO/water not containing the active material. After 24 hours, the plants are contaminated by spraying the leaves with an aqueous suspension of Pyrenophora teres spores (12 000 spores per ml). The spores are collected from a 12-day-old culture. The contaminated barley plants are incubated for 48 hours at 20° C. and at 100% relative humidity, and then for 12 days at 20° C. at 70-80% relative humidity. Grading (% of efficacy) is carried out 14 days after the contamination, in comparison with the control plants.

Sphaerotheca fuliginea = test: In vivo preventive test on Sphaerotheca fuliginea (powdery mildew on cucurbits); settings: dose 100 ppm, gherkin plants, preventive spray, grading 12 days after contamination
Protocol: Gherkin plants (“Vert petit de Paris” variety), sown in starter cups on a 50/50 peat soil-pozzolana substrate and grown at 24° C., are treated at the Z11 cotyledon stage by spraying with the active ingredient prepared as described above. Plants, used as controls, are treated with the mixture of acetone/tween/DMSO/water not containing the active material. After 24 hours, the plants are contaminated by spraying the cotyledons with an aqueous suspension of Sphaerotheca fuliginea spores (100 000 spores per ml). The spores are collected from infected plants. The contaminated gherkin plants are incubated at about 20° C. and at 70-80% relative humidity. Grading (% of efficacy) is carried out 12 days after the contamination, in comparison with the control plants.

Septoria tritici = test: In vivo preventive test on Septoria tritici (leaf spot on wheat); settings: dose 100 ppm, wheat plants, preventive spray, grading 24 days after contamination
Protocol: Wheat plants (“Scipion” variety), sown in starter cups on a 50/50 peat soil-pozzolana substrate and grown at 22° C., are treated at the 1-leaf stage (10 cm height) by spraying with the active ingredient prepared as described above. Plants, used as controls, are treated with the mixture of acetone/tween/DMSO/water not containing the active material. After 24 hours, the plants are contaminated by spraying the leaves with an aqueous suspension of cryopreserved Septoria tritici spores (500 000 spores per ml). The contaminated wheat plants are incubated for 72 hours at 18° C. and at 100% relative humidity, and then for 21 days at 90% relative humidity. Grading (% of efficacy) is carried out 24 days after the contamination, in comparison with the control plants.

Row | SMILES | logP [1] | further results
1 | CC1(C)CCCc2c(NC(=S)c3cccnc3C(F)F)ccc(F)c21 [Example 15] | 3.79^[a] | 
2 | Cc1cnc(C(F)F)c(C(=O)Nc2cccc3c2CCC(C)(C)C3)c1 [Example 7, 2-(difluoromethyl)-N-(6,6-dimethyl-5,6,7,8-tetrahydronaphthalen-1-yl)-5-methylnicotinamide] |  | chromatographic logP [1]: 3.52
3 | Cc1cnc(C(F)F)c(C(=S)Nc2cccc3c2CCC(C)(C)C3)c1 [Example 17, 2-(difluoromethyl)-N-(6,6-dimethyl-5,6,7,8-tetrahydronaphthalen-1-yl)-5-methylpyridine-3-carbothioamide] |  | chromatographic logP [1]: 3.94
4 | CC1(C)CCCc2c(NC(=O)c3ccc(Cl)nc3C(F)F)ccc(F)c21 [Example 11] | 3.94^[a] | 
5 | Cc1cnc(C(F)F)c(C(=O)Nc2cccc3c2CCCC3(C)C)c1 [Example 20] | 3.46^[a] | 
6 | CCON=C1CCCc2c(NC(=O)c3cc(C)cnc3C(F)F)cccc21 [Example 13] | 3.19^[a] | 
7 | CON=C1CCCc2c(NC(=O)c3cc(C)cnc3C(F)F)cccc21 [Example 8] | 2.75^[a] | 
8 | CC1(C)CCc2cccc(NC(=O)c3cccnc3C(F)F)c2C1 [Example 1, 2-(difluoromethyl)-N-(7,7-dimethyl-5,6,7,8-tetrahydronaphthalen-1-yl)nicotinamide] |  | chromatographic logP [1]: 3.23
9 | Cc1cnc(C(F)F)c(C(=O)Nc2ccc(F)c3c2CCCC3(C)C)c1 [Example 10] | 3.57^[a] | 
10 | CC(C)C1CCCc2c(NC(=O)c3ccc(Cl)nc3C(F)F)cccc21 (stereo not shown) [Example 19] | 4.31^[a] | biological efficacy (Puccinia recondita; dose 100 ppm): ≥ 70%; biological efficacy (Septoria tritici): ≥ 70%

Continued, in another order:

Row | logP [1] | SMILES | further results
11 | 3.55^[a] | CC1c2cccc(NC(=O)c3cccnc3C(F)F)c2CCC1(C)C (stereo not shown) [Example 2] | 
12 | 3.33^[a] | C=C1c2cccc(NC(=O)c3cccnc3C(F)F)c2CCC1(C)C [Example 4] | biological efficacy (Alternaria brassicae): ≥ 70%
13 | 2.49^[a] | CON=C1CCCc2c(NC(=O)c3cccnc3C(F)F)cccc21 [Example 9] | biological efficacy (Uromyces appendiculatus): ≥ 70%; biological efficacy (Puccinia recondita; dose 500 ppm): ≥ 70%; biological efficacy (Botrytis cinerea; dose 500 ppm): ≥ 70%; biological efficacy (Alternaria brassicae): ≥ 90%
14 | 2.28^[a] | CC1(C)CCc2c(NC(=O)c3cccnc3C(F)F)cccc2C1=O [Example 5] | biological efficacy (Pyrenophora teres): ≥ 70%
15 | 3.37^[a] | CC1CCC(C)(C)c2cccc(NC(=O)c3cccnc3C(F)F)c21 (stereo not shown) [Example 3] | 
16 | 3.24^[a] | CC1CCc2c(NC(=O)c3cccnc3C(F)F)cccc2C1C (mixture of isomers) [Example 6] | 
17 | 3.29^[a] | CC1(C)CCCc2c(NC(=O)c3cccnc3C(F)F)ccc(F)c21 [Example 12] | 
18 | 3.60^[a] | CC(C)C1CCCc2c(NC(=O)c3cccnc3C(F)F)cccc21 (stereo not shown) [Example 18] | biological efficacy (Puccinia recondita; dose 100 ppm): ≥ 90%; biological efficacy (Botrytis cinerea; dose 100 ppm): ≥ 90%; biological efficacy (Sphaerotheca fuliginea): ≥ 80%
19 | 2.90^[a] | CCON=C1CCCc2c(NC(=O)c3cccnc3C(F)F)cccc21 [Example 16] | 
20 | 3.23^[a] | CC1(C)CCc2c(cccc2NC(=O)c2cccnc2C(F)F)C1 [Example 14] | 
